Measurements taken from patent publication US12404283B2, “c-MYC mRNA translation modulators and uses thereof in the treatment of cancer” (Anima Biotech Inc., priority 2022, dated 2025).
Structures can show the parent of a compound that is named as a salt.

System: c-Myc
Assay: c-Myc immunofluorescence assay
Type: cell-based, human
Conditions: A549 cells, 24 hours treatment, anti-c-Myc immunofluorescence
Procedure: A549 human non-small cell lung carcinoma cells were treated for 24 hours with increasing compound concentration, cells were fixed and stained with a nuclei stain (DAPI) and anti-c-Myc fluorescent antibody. The c-Myc signal was quantified by image analysis, and data was exported and analyzed using TIBCO Spotfire® (TIBCO Corporation). Dose response curves were generated and fitted with logaristic regression to calculate potency (EC50 values). Potency values are presented in Table 2 for all compounds and are shown for selected compounds (FIG. 4).
A549 cells were grown in 384-wells plates (Perkin Elmer, Cat. 6057300) for 48 hours, treated with compounds and then fixed for 20 min in 4% paraformaldehyde. After that permeabilization was done using 0.1% Triton X-100 in PBS for 20 min. Primary anti-c-Myc antibody (Abcam, ab32072) staining was performed for 90 min at room temperature. Cells then were washed twice with PBS and incubated with secondary antibody (Abcam, ab150075) for 90 min at room temperature. Nuclei were stained with DAPI for 10 min and washed twice with PBS.
Cell images were taken with Operetta (Perkin Elmer, USA), a wide-field fluorescence microscope at 20× magnification. After acquisition, the images were transferred to Columbus software (Perkin-Elmer) for image analysis. In Columbus, cells were identified by their nucleus, using the “Find Nuceli” module and cytoplasm was detected based on the secondary antibody channel. Subsequently, the fluorescent signal was enumerated in the identified cell region. Then data was exported to a data analysis and visualization software, Tibco Spotfire, USA.

Structure (SMILES)	Myc Efficacy (−LogEC50)
CO[C@H]1CN[C@@H](c2ccc(-c3cn4c(n3)sc3cc(C(=O)NCCCN5CCC(F)CC5)ccc34)c(F)c2)C1 (relative stereo) [Compound 523, 2-(2-fluoro-4-((cis)-4-methoxypyrrolidin-2-yl)phenyl)-N-(3-(4-fluoropiperidin-1-yl)propyl)benzo[d]imidazo[2,1-b]thiazole-7-carboxamide]	+++ (+++ ≥6)
CO[C@H]1CN[C@@H](c2ccc(-c3cn4c(n3)sc3cc(C(=O)NC5CCN(C)CC5)ccc34)c(F)c2)C1 (relative stereo) [Compound 532, 2-(2-fluoro-4-((cis)-4-methoxypyrrolidin-2-yl)phenyl)-N-(1-methylpiperidin-4-yl)benzo[d]imidazo[2,1-b]thiazole-7-carboxamide]	+++ (+++ ≥6)
O=C(NC1CCOCC1)c1ccc2c(c1)sc1nc(-c3ccc([C@H]4C[C@@H](O)CN4)cc3F)cn12 (relative stereo) [Compound 533, 2-(2-fluoro-4-((cis)-4-hydroxypyrrolidin-2-yl)phenyl)-N-(tetrahydro-2H-pyran-4-yl)benzo[d]imidazo[2,1-b]thiazole-7-carboxamide]	+++ (+++ ≥6)
O=C(NC1CCOCC1)c1ccc2c(c1)sc1nc(-c3ccc([C@H]4C[C@H](O)CN4)cc3F)cn12 (relative stereo) [Compound 538, 2-(2-fluoro-4-((trans)-4-hydroxypyrrolidin-2-yl)phenyl)-N-(tetrahydro-2H-pyran-4-yl)benzo[d]imidazo[2,1-b]thiazole-7-carboxamide]	+++ (+++ ≥6)
CNC(=O)c1ccc2c(c1)sc1nc(-c3ccc([C@H]4C[C@H](O)CN4)cc3F)cn12 (relative stereo) [Compound 544, 2-(2-fluoro-4-((trans)-4-hydroxypyrrolidin-2-yl)phenyl)-N-methylbenzo[d]imidazo[2,1-b]thiazole-7-carboxamide]	+++ (+++ ≥6)
O=C(N[C@@H]1CCOC1)c1ccc2c(c1)sc1nc(-c3ccc(C4CCCN4)cc3F)cn12 (stereo partly drawn) [524R, 2-(2-fluoro-4-(pyrrolidin-2-yl)phenyl)-N-((R)-tetrahydrofuran-3-yl)benzo[d]imidazo[2,1-b]thiazole-7-carboxamide]	++ (++ ≥5 and <6)
O=C(N[C@H]1CCOC1)c1ccc2c(c1)sc1nc(-c3ccc(C4CCCN4)cc3F)cn12 (stereo partly drawn) [524S, 2-(2-fluoro-4-(pyrrolidin-2-yl)phenyl)-N-((S)-tetrahydrofuran-3-yl)benzo[d]imidazo[2,1-b]thiazole-7-carboxamide]	++ (++ ≥5 and <6)
O=C(NCCCN1CCC(F)CC1)c1ccc2c(c1)sc1nc(-c3ccc([C@H]4CCCO4)cc3F)cn12 [Compound 428R, (R)-2-(2-fluoro-4-(tetrahydrofuran-2-yl)phenyl)-N-(3-(4-fluoropiperidin-1-yl)propyl)benzo[d]imidazo[2,1-b]thiazole-7-carboxamide]	++ (++ ≥5 and <6)
O=C(NCCCN1CCC(F)CC1)c1ccc2c(c1)sc1nc(-c3ccc([C@@H]4CCCO4)cc3F)cn12 [Compound 428S, (S)-2-(2-fluoro-4-(tetrahydrofuran-2-yl)phenyl)-N-(3-(4-fluoropiperidin-1-yl)propyl)benzo[d]imidazo[2,1-b]thiazole-7-carboxamide]	+++ (+++ ≥6)
O=C1CC[C@H](c2ccc(-c3cn4c(n3)sc3cc(C(=O)NCCCN5CCC(F)CC5)ccc34)c(F)c2)N1 [Compound 432R, (R)-2-(2-fluoro-4-(5-oxopyrrolidin-2-yl)phenyl)-N-(3-(4-fluoropiperidin-1-yl)propyl)benzo[d]imidazo[2,1-b]thiazole-7-carboxamide]	+++ (+++ ≥6)
O=C1CC[C@@H](c2ccc(-c3cn4c(n3)sc3cc(C(=O)NCCCN5CCC(F)CC5)ccc34)c(F)c2)N1 [Compound 432S, (S)-2-(2-fluoro-4-(5-oxopyrrolidin-2-yl)phenyl)-N-(3-(4-fluoropiperidin-1-yl)propyl)benzo[d]imidazo[2,1-b]thiazole-7-carboxamide]	+++ (+++ ≥6)
O=C(NCCCN1CCC(F)CC1)c1ccc2c(c1)sc1nc(-c3ccc([C@H]4CCNC4)cc3F)cn12 [Compound 434R, (R)-2-(2-fluoro-4-(pyrrolidin-3-yl)phenyl)-N-(3-(4-fluoropiperidin-1-yl)propyl)benzo[d]imidazo[2,1-b]thiazole-7-carboxamide]	+++ (+++ ≥6)
O=C(NCCCN1CCC(F)CC1)c1ccc2c(c1)sc1nc(-c3ccc([C@@H]4CCNC4)cc3F)cn12 [Compound 434S, (S)-2-(2-fluoro-4-(pyrrolidin-3-yl)phenyl)-N-(3-(4-fluoropiperidin-1-yl)propyl)benzo[d]imidazo[2,1-b]thiazole-7-carboxamide]	+++ (+++ ≥6)
Cc1c(-c2ccc([C@H]3CCCN3)cc2F)nc2sc3cc(C(=O)NCCCN4CCC(F)CC4)ccc3n12 [Compound 464R, (R)-2-(2-fluoro-4-(pyrrolidin-2-yl)phenyl)-N-(3-(4-fluoropiperidin-1-yl)propyl)-3-methylbenzo[d]imidazo[2,1-b]thiazole-7-carboxamide dihydrochloride]	+++ (+++ ≥6)
Cc1c(-c2ccc([C@@H]3CCCN3)cc2F)nc2sc3cc(C(=O)NCCCN4CCC(F)CC4)ccc3n12 [Compound 464S, (S)-2-(2-fluoro-4-(pyrrolidin-2-yl)phenyl)-N-(3-(4-fluoropiperidin-1-yl)propyl)-3-methylbenzo[d]imidazo[2,1-b]thiazole-7-carboxamide dihydrochloride]	+++ (+++ ≥6)
NC1(c2ccc(-c3cn4c(n3)sc3cc(C(=O)NCCCN5CCC(F)CC5)ccc34)c(F)c2)CC1 [Compound 474, 2-(4-(1-aminocyclopropyl)-2-fluorophenyl)-N-(3-(4-fluoropiperidin-1-yl)propyl)benzo[d]imidazo[2,1-b]thiazole-7-carboxamide]	+++ (+++ ≥6)
O=C(NCCCN1CCC(F)CC1)c1ccc2c(c1)sc1nc(-c3ccc(C4CCCN4)c(F)c3F)cn12 (centres unmarked) [Compound 476, 2-(2,3-difluoro-4-(pyrrolidin-2-yl)phenyl)-N-(3-(4-fluoropiperidin-1-yl)propyl)benzo[d]imidazo[2,1-b]thiazole-7-carboxamide]	+++ (+++ ≥6)
O=C(NCCCN1CCC(F)CC1)c1ccc2c(c1)sc1nc(-c3ccc(C4CCNC4)cc3F)cn12 (centres unmarked) [Compound 479, 2-(2-fluoro-4-(pyrrolidin-3-yl)phenyl)-N-(3-(4-fluoropiperidin-1-yl)propyl)benzo[d]imidazo[2,1-b]thiazole-7-carboxamide]	+++ (+++ ≥6)
O=C(NCCCN1CCC(F)CC1)c1ccc2c(c1)sc1nc(-c3ccc(C4CCCCN4)cc3F)cn12 (centres unmarked) [Compound 480, 2-(2-fluoro-4-(piperidin-2-yl)phenyl)-N-(3-(4-fluoropiperidin-1-yl)propyl)benzo[d]imidazo[2,1-b]thiazole-7-carboxamide]	+++ (+++ ≥6)
O=C(NCCCN1CCC(F)CC1)c1ccc2c(c1)sc1nc(-c3ccc(C4COCCN4)cc3F)cn12 (centres unmarked) [Compound 481, 2-(2-fluoro-4-(morpholin-3-yl)phenyl)-N-(3-(4-fluoropiperidin-1-yl)propyl)benzo[d]imidazo[2,1-b]thiazole-7-carboxamide]	+++ (+++ ≥6)
O=C(NCCCN1CCC(F)CC1)c1ccc2c(c1)sc1nc(-c3ccc(-c4nc[nH]n4)cc3F)cn12 [Compound 483, 2-(2-fluoro-4-(1H-1,2,4-triazol-3-yl)phenyl)-N-(3-(4-fluoropiperidin-1-yl)propyl)benzo[d]imidazo[2,1-b]thiazole-7-carboxamide]	+++ (+++ ≥6)
O=C(NCCCN1CCC(F)CC1)c1ccc2c(c1)sc1nc(-c3ccc(C4CCCN4)c(F)c3)cn12 (centres unmarked) [Compound 484, 2-(3-fluoro-4-(pyrrolidin-2-yl)phenyl)-N-(3-(4-fluoropiperidin-1-yl)propyl)benzo[d]imidazo[2,1-b]thiazole-7-carboxamide]	+++ (+++ ≥6)
O=C(NCCCN1CCC(F)CC1)c1ccc2c(c1)sc1nc(-c3ccc(C4CC(F)(F)CN4)cc3F)cn12 (centres unmarked) [Compound 490, 2-(4-(4,4-difluoropyrrolidin-2-yl)-2-fluorophenyl)-N-(3-(4-fluoropiperidin-1-yl)propyl)benzo[d]imidazo[2,1-b]thiazole-7-carboxamide]	+++ (+++ ≥6)
CN1CCC[C@@H](NC(=O)c2ccc3c(c2)sc2nc(-c4ccc(C5CCCN5)cc4F)cn23)C1 (stereo partly drawn) [Compound 491R, 2-(2-fluoro-4-(pyrrolidin-2-yl)phenyl)-N—((R)-1-methylpiperidin-3-yl)benzo[d]imidazo[2,1-b]thiazole-7-carboxamide]	+++ (+++ ≥6)
CN1CCC[C@H](NC(=O)c2ccc3c(c2)sc2nc(-c4ccc(C5CCCN5)cc4F)cn23)C1 (stereo partly drawn) [Compound 491S, 2-(2-fluoro-4-(pyrrolidin-2-yl)phenyl)-N—((S)-1-methylpiperidin-3-yl)benzo[d]imidazo[2,1-b]thiazole-7-carboxamide]	+++ (+++ ≥6)
NC(=O)c1ccc2c(c1)sc1nc(-c3ccc(C4CCCN4)cc3F)cn12 (centres unmarked) [Compound 492, 2-(2-fluoro-4-(pyrrolidin-2-yl)phenyl)benzo[d]imidazo[2,1-b]thiazole-7-carboxamide]	+++ (+++ ≥6)
